Measured values published in US12403144B2, “HECT E3 ligase inhibitors and uses thereof” (IFOM FONDAZIONE ISTITUTO FIRC DI ONCOLOGIA MOLECOLARE, priority 2019, dated 2025).
Structures can show the parent of a compound that is named as a salt.

Target: T1, untagged HECT of NEDD4 wild-type (WT) (E3 ligase) (Homo sapiens, UniProt P46934)
T1 construct: untagged HECT of NEDD4 wild-type (WT) (E3 ligase); made in house
T1 sequence (P46934 519-900 isoform P46934-4 limits assumed): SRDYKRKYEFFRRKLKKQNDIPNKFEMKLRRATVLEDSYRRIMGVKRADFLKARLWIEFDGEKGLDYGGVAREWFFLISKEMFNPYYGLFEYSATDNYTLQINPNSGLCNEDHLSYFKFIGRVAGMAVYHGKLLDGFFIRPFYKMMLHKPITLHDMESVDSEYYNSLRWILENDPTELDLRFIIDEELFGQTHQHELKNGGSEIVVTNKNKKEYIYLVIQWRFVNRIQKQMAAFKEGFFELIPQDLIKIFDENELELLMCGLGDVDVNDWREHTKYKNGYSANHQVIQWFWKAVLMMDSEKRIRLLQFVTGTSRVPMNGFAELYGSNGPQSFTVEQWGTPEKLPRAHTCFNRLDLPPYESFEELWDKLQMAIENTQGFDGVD
Test: In vitro ubiquitination assay TR-FRET based (self-ubiquitination of NEDD4)
Format: biochemical
Details: at 11 μM; pre-incubated for 1 hour; AUC of 120 minutes kinetic; read-out: percentages of inhibition (NEDD4)
Source text: FIG. 1: TR-FRET kinetic assay performed with compound 12. […] Reactions were initiated with the addition of ATP. As labeled ubiquitin molecules become incorporated into chains they come into close proximity, resulting in energy transfer and increased signal to background detection. The activity of the enzyme is continuously and real time detected and it is expressed as % of signal/background during the time.
In order to quantitatively measure the self-ubiquitination process of the E3 HECT ligase NEDD4 the inventors employed a TR-FRET based assay. TR-FRET technology exploits the long-lasting emission of lanthanide fluorescence to interpose a short time-delay between FRET donor excitation and emission. This phenomenon enables to isolate real fluorescent signals from short-lived background emissions, thus reducing possible interference from compounds.
In the present study, elongation of the ubiqutin chain by NEDD4 is measured by adding bacterially expressed E1, His-tagged UBE2D3 (E2) and untagged HECT of NEDD4 wild-type (WT) (E3 ligase) (named in FIG. 1 as WT) enzymes to a mixture of Eu-cryptate ubiquitin, Cy5-ubiquitin and wild-type ubiquitin, combined in a ratio optimized for TR-FRET based conjugation (100×TRF-Ubiquitin Mix, SBB-TR0051). […] Bacterially expressed E1, His-tagged UBE2D3 (E2), untagged HECT NEDD4 (E3 ligase) WT and NEDD4 C/A enzymes were produced and purified as reported in E. Maspero et al. Methods Mol Biol. 1449:153-60 (2016).
Enzymatic incorporation of the labeled TRF-Ubiquitin mix into chains leads to an increase in fluorescence emission at 665 nm (emission of the acceptor Cy5-Ubiquitin, Emacceptor) and decrease at emission wavelength 620 nm (emission of the donor Eu-cryptate Ubiquitin, Emdonor).
The assay was performed in a 384-well plate format (Optiplate, Perkin Elmer, #6007290) on an automated liquid-handler (Hamilton STAR, Hamilton Robotics, Switzerland).
All compounds were dissolved in 100% DMSO and serially diluted in 96-well plates (from 100 μM to 0.005 μM).
Briefly, all reagents were thawed and kept on ice. A master mix containing E1, E2, E3 and TRF-Ubiquitin Mix (SBB-TR0051) diluted in the assay buffer (Tris-HCl pH 7.6 25 mM, NaCl 100 mM, MgCl2 5 mM and Tween 0.01%) is prepared and 50 μl/well is dispensed in a 384 well plate. 3 μl of compounds dissolved in DMSO in the above-indicated concentration range were added and pre-incubated for 1 hour. Final E1, E2 and E3 concentrations in the assay buffer (Tris-HCl pH 7.6 25 mM, NaCl 100 mM, MgCl2 5 mM and Tween 0.01%) were 30, 350 and 50 nanomolars, respectively. The reaction was initiated with the addition of ATP (22 μl of 2 mM ATP, JenaBioscience, NU-1010) and was allowed to proceed for 120 minutes, measuring fluorescence emission at 665 nm and 620 nm in real-time on an EnSpire microplate reader (Perkin Elmer).
Kinetic raw data were analyzed by Area Under the Curve (AUC) method using Prism GraphPad software.
% signal/background corresponds to the following equation: (Experimental signal−Background signal)/Background signal×100%
Experimental signal corresponds to the signal obtained by the enzymatic reaction in presence of the vehicle (DMSO) and/or the different compound concentrations. Background signal corresponds to the signal obtained by the enzymatic reaction in absence of ATP.
The relative potency of the compounds was evaluated by dose-response curves following the enzymatic reaction of HECT NEDD4 WT in real time for 120 minutes.
Percentage of inhibition is then determined by the equation: % inhibition=100×[1−(X)/(MAX)],
where MAX correspond to AUC of the vehicle (DMSO) treated enzyme, and X corresponds to the AUC of the compound treated enzyme.

Compound	inhibition at 11 µM
CCC(=O)/C=C/CN(C)CCCCN1c2ccccc2CCc2ccc(Cl)cc21 [Compound 54, (E)-6-[4-(3-chloro-10,11-dihydro-5H-dibenzo[b,f]azepin-5-yl)butyl-methyl-amino]hex-4-en-3-one maleate]	> 50%
CCOC(=O)/C=C/CNCCCN1c2ccccc2C(=O)N(CCO)c2ccc(Cl)cc21 [Compound 55, Ethyl (E)-4-({3-[7-chloro-10-(2-hydroxyethyl)-11-oxo-10,11-dihydro-5H-dibenzo[b,e][1,4]diazepin-5-yl]propyl}amino)but-2-enoate maleate]	< 30%
CC(=O)/C=C/CN(C)CCCCN1c2cc(Cl)ccc2C(=O)N(C)c2ccccc21 [Compound 57, 3-Chloro-10-methyl-5-(4-{methyl[(E)-4-oxopent-2-en-1-yl]amino}butyl)-5,10-dihydro-11H-dibenzo[b,e][1,4]diazepin-11-one maleate]	> 50%
CON(C)C(=O)/C=C/CN(C)CCCCN1c2cc(Cl)ccc2C(=O)N(Cc2ccccc2)c2ccccc21 [Compound 59, (E)-4-{[4-(10-Benzyl-3-chloro-11-oxo-10,11-dihydro-5H-dibenzo[b,e][1,4]diazepin-5-yl)butyl](methyl)amino}-N-methoxy-N-methyl-but-2-enamide maleate]	> 50%
CC(=O)/C=C/CN(C)CCCCN1c2cc(Cl)ccc2C(=O)N(Cc2ccccc2)c2ccccc21 [Compound 60, 10-Benzyl-3-chloro-5-(4-{methyl[(E)-4-oxo-pent-2-en-1-yl]amino}butyl)-5,10-dihydro-11H-dibenzo[b,e][1,4]diazepin-11-one maleate]	> 50%
COC(=O)/C=C/CNCCCCN1c2ccccc2CCc2ccc(Cl)cc21 [Compound 62, Methyl (E)-4-[4-(3-chloro-10,11-dihydro-5H-dibenzo[b,f]azepin-5-yl)butylamino]but-2-enoate maleate]	> 50%
CCOC(=O)/C=C/CN(C)CCCCN1c2ccccc2CCc2ccc(Cl)cc21 [Compound 63, Ethyl (E)-4-{[4-(3-chloro-10,11-dihydro-5H-dibenzo[b,f]azepin-5-yl)butyl]-methyl-amino}but-2-enoate maleate]	> 50%
CCOC(=O)/C=C/CN(CC)CCCCN1c2ccccc2CCc2ccc(Cl)cc21 [Compound 64, Ethyl (E)-4-{[4-(3-chloro-10,11-dihydro-dibenzo[b,f]azepin-5-yl)butyl]-ethyl-amino}but-2-enoate maleate]	> 50%
CCOC(=O)/C=C/CN(CCCCN1c2ccccc2CCc2ccc(Cl)cc21)C(C)C [Compound 65, Ethyl (E)-4-{[4-(3-chloro-10,11-dihydro-dibenzo[b,f]azepin-5-yl)butyl]-isopropyl-amino}but-2-enoate maleate]	> 50%
CNC(=O)/C=C/CNCCCCN1c2ccccc2CCc2ccc(Cl)cc21 [Compound 66, (E)-4-{[4-(3-chloro-10,11-dihydro-5H-dibenzo[b,f]azepin-5-yl)butyl]amino}-N-methyl-but-2-enamide hydrochloride]	30 to 50%
CCOC(=O)/C=C/CNCCCCN1c2ccc(OC)cc2CCc2ccc(Cl)cc21 [Compound 67, Ethyl (E)-4-[4-(7-Chloro-2-methoxy-10,11-dihydro-dibenzo[b,f]azepin-5-yl)-butylamino]-but-2-enoate maleate]	> 50%
COC(=O)/C=C/CN(C)CCCCN1c2cc(Cl)ccc2COc2ccccc21 [Compound 68, Methyl (E)-4-[4-(3-chlorodibenzo[b,e][1,4]oxazepin-5(11H)-yl)butyl-methyl-amino]but-2-enoate]	> 50%
CON(C)C(=O)/C=C/CN(C)CCCCN1c2cc(Cl)ccc2COc2ccccc21 [Compound 69, (E)-4-[4-(3-Chlorodibenzo[b,e][1,4]oxazepin-5(11H)-yl)butyl-methyl-amino]-N-methoxy-N-methyl-but-2-enamide]	> 50%
CC(=O)/C=C/CN(C)CCCCN1c2cc(Cl)ccc2COc2ccccc21 [Compound 70, (E)-5-[4-(3-Chlorodibenzo[b,e][1,4]oxazepin-5(11H)-yl)butyl-methyl-amino]pent-3-en-2-one maleate]	> 50%

Now from value to molecule:

inhibition at 11 µM	Compound
> 50%	N#C/C=C/CNCCCCN1c2ccccc2CCc2ccc(Cl)cc21 [Compound 71, (E)-4-[4-(3-chloro-10,11-dihydro-5H-dibenzo[b,f]azepin-5-yl)butylamino]but-2-enenitrile maleate]
> 50%	CN(C/C=C/C(N)=O)CCCCN1c2ccccc2CCc2ccc(Cl)cc21 [Compound 72, (E)-4-[4-(3-Chloro-10,11-dihydro-5H-dibenzo[b,f]azepin-5-yl)butyl-methyl-amino]but-2-enamide]
> 50%	CN(C/C=C/C#N)CCCCN1c2ccccc2CCc2ccc(Cl)cc21 [Compound 73, (E)-4-[4-(3-Chloro-10,11-dihydro-5H-dibenzo[b,f]azepin-5-yl)butyl-methyl-amino]but-2-enenitrile maleate]
> 50%	CCOC(=O)/C=C/CNCCCCN1c2ccc(CO)cc2CCc2ccc(Cl)cc21 [Compound 74, Ethyl (E)-4-[4-(7-Chloro-2-hydroxymethyl-10,11-dihydro-dibenzo[b,f]azepin-5-yl)-butylamino]-but-2-enoate maleate]
> 50%	CCOC(=O)/C=C/CNCCCCN1c2ccc(COC)cc2CCc2ccc(Cl)cc21 [Compound 75, Ethyl (E)-4-[4-(7-chloro-2-methoxymethyl-10,11-dihydro-dibenzo[b,f]azepin-5-yl)-butylamino]-but-2-enoate maleate]
> 50%	CCOC(=O)/C=C/CNCCCCN1c2ccc(COCCOC)cc2CCc2ccc(Cl)cc21 [Compound 76, Ethyl (E)-4-[4-(7-chloro-2-methoxyethoxymethyl-10,11-dihydro-dibenzo[b,f]azepin-5-yl)-butylamino]-but-2-enoate maleate]
> 50%	O=C(/C=C/CNCCCCN1c2ccccc2CCc2ccc(Cl)cc21)NOCc1ccccc1 [Compound 79, (E)-4-[4-(3-chloro-10,11-dihydro-5H-dibenzo[b,f]azepin-5-yl)butylamino]-N-benzyloxy-but-2-enamide maleate]
> 50%	CCONC(=O)/C=C/CNCCCCN1c2ccccc2CCc2ccc(Cl)cc21 [Compound 80, (E)-4-[4-(3-chloro-10,11-dihydro-5H-dibenzo[b,f]azepin-5-yl)butylamino]-N-ethoxy-but-2-enamide maleate]
> 50%	CC(C)ONC(=O)/C=C/CNCCCCN1c2ccccc2CCc2ccc(Cl)cc21 [Compound 81, (E)-4-[4-(3-chloro-10,11-dihydro-5H-dibenzo[b,f]azepin-5-yl)butylamino]-N-isopropoxy-but-2-enamide maleate]
> 50%	O=C(/C=C/CNCCCCN1c2ccccc2CCc2ccc(Cl)cc21)NOc1ccccc1 [Compound 82, (E)-4-[4-(3-chloro-10,11-dihydro-5H-dibenzo[b,f]azepin-5-yl)butylamino]-N-phenoxy-but-2-enamide maleate]
